In patent publication US20240116946A1 (Gilead Sciences, Inc., priority 2022, published 2024) one finds IC50 and EC50 data, which are given here for 30 molecules.

pEC50, pIC50: −log10 of the molar value. Like-named read-outs stand apart in the source and are kept apart here.

The target in assay [1] is recombinant SARS-CoV-2 Main protease (Mpro) (Severe acute respiratory syndrome coronavirus 2 (2019-nCoV) (SARS-CoV-2), UniProt P0DTD1). The assay can be described thus: Cov Mpro Biochemical IC50 Assay. The note with it: read-out: MPro IC50.
Assay [2] deals with SARS-CoV-2-NLuc. The assay can be described thus: microbe, parasite or virus in culture. It counts as cell-based, SARS Coronavirus 2.
The mark [3] stands for this setting: recombinant SARS-CoV-2 Mpro, fluorogenic peptide substrate.
Where [4] appears, read: Severe acute respiratory syndrome coronavirus, 48 h, read-out: MPro EC50.
[5] abbreviates: recombinant SARS-CoV-2 Mpro 7.5 nM, fluorogenic peptide substrate 40 μM.
Setting [6] is: Severe acute respiratory syndrome coronavirus, 48 h; read-out: MPro EC50.

The pIC50 is the IC50 on a negative log10 scale, so that one unit is a factor of ten. By pEC50 is commonly meant −log10 of the EC50, conventionally taken in molar units. For the molecule `COc1cc(-c2ccc3c(=O)n(-c4cncc5ccccc45)c(=O)[nH]c3c2)c(Cl)cn1` [Example 253], the pIC50 in assay [1] (setting [3]) is 6.34. Besides, in assay [2] (setting [4]), the pEC50 was 5.92.
In the case of `O=C1NCc2cc(-c3cccc(Cl)c3-c3ccc4c(=O)n(-c5cncc6ccccc56)c(=O)[nH]c4c3)ccc21` [Example 360], the pIC50 in assay [1] (setting [3]) is 7.71. Also, the pEC50 in assay [2] (setting [4]) was 7.38.
For the molecule `O=c1[nH]c2cc(-c3ccccc3Cl)sc2c(=O)n1-c1cncc2c1CCCC2` [Example 108], the pIC50 in assay [1] (setting [3]) is 8.03. Besides, the pEC50 in assay [2] (setting [4]) was 7.15.
For `O=c1[nH]c2cc(-c3c(Cl)cccc3-c3cc4n(n3)CCC4)ccc2c(=O)n1-c1cncc2ccccc12` [Example 246], in that order: 7.68 and 7.73.
Consider `COc1cc(-c2cc3[nH]c(=O)n(-c4cncc5cccc(F)c45)c(=O)c3s2)c(Cl)cc1F` [Example 444, 6-(2-chloro-4-fluoro-5-methoxyphenyl)-3-(5-fluoroisoquinolin-4-yl)thieno[3,2-d]pyrimidine-2,4(1H,3H)-dione], for which the pIC50 in assay [1] (setting [5]) is 8.26. Besides, the pEC50 in assay [2] (setting [4]) was 8.05.
On to `COc1ccc(Cl)c(-c2cc3[nH]c(=O)n(-c4cncc5ccc(C(=O)N6CCOCC6)cc45)c(=O)c3s2)c1` [Example 566, 6-(2-chloro-5-methoxy-phenyl)-3-[6-(morpholine-4-carbonyl)-4-isoquinolyl]-1H-thieno[3,2-d]pyrimidine-2,4-dione], for which, in assay [1] (setting [5]), the pIC50 was 8.01. For the same molecule, in assay [2] (setting [4]), the pEC50 was 7.68.
As for `COc1cc(-c2cc3[nH]c(=O)n(-c4cncc5ccncc45)c(=O)c3s2)c(Cl)cc1F` [Example 739], in assay [1] (setting [5]), the negative-log IC50 (pIC50) was 8.02. Further, in assay [2] (setting [6]), the pEC50 is 7.76.
With `N#CCCn1c(=O)n(-c2cncc(F)c2)c(=O)c2sc(-c3ccccc3C#N)cc21` [Example 864], in assay [1] (setting [5]), the pIC50 was 7.27. In addition, the pEC50 in assay [2] (setting [6]) is 6.83.
Take `COc1cc(-c2nc3c(s2)c(=O)n(-c2cncc4ccccc24)c(=O)n3CC#N)c(Cl)cc1F` [Example 705]: the pIC50 in assay [1] (setting [5]) was 8.32. The pEC50 in assay [2] (setting [4]) was 8.09.
Take `NC(=O)c1ccccc1-c1cc2[nH]c(=O)n(-c3cncc4ccccc34)c(=O)c2cc1F` [Example 68]: the pIC50 in assay [1] (setting [3]) was 6.00. In addition, the negative logarithm of the EC50 (pEC50) in assay [2] (setting [4]) is 4.36.
`Cc1cccc(C)c1-c1ccc2c(=O)n(-c3cncc4ccccc34)c(=O)[nH]c2c1` [Example 27]: the pIC50 in assay [1] (setting [3]) is 6.11. The negative-log EC50 (pEC50) in assay [2] (setting [4]) is 6.12.
On to `Cc1nn(C2CCN(C(=O)OC(C)(C)C)CC2)cc1-c1cccc(Cl)c1-c1ccc2c(=O)n(-c3cncc4ccccc34)c(=O)[nH]c2c1` [Example 266, tert-butyl 4-[4-[3-chloro-2-[3-(4-isoquinolyl)-2,4-dioxo-1H-quinazolin-7-yl]phenyl]-3-methyl-pyrazol-1-yl]piperidine-1-carboxylate], for which the pIC50 in assay [1] (setting [3]) is 7.44. Also, the pEC50 in assay [2] (setting [4]) was 7.02.
Consider `COc1ccc(Cl)c(-c2cc3[nH]c(=O)n(-c4cncc5cc(F)ccc45)c(=O)c3s2)c1` [Example 580, 6-(2-chloro-5-methoxyphenyl)-3-(7-fluoroisoquinolin-4-yl)thieno[3,2-d]pyrimidine-2,4(1H,3H)-dione], for which, in assay [1] (setting [5]), the negative logarithm of the IC50 (pIC50) was 8.12. In assay [2] (setting [4]), the pEC50 is 7.15.
For `Cn1cc(-c2cccc(Cl)c2-c2ccc3c(=O)n(-c4cncc5ccccc45)c(=O)[nH]c3c2)cn1` [Example 144], in assay [1] (setting [3]), the pIC50 is 7.02. For the same molecule, in assay [2] (setting [4]), the pEC50 is 7.17.
In the case of `Cc1cc(Cl)c(-c2cc3[nH]c(=O)n(-c4cncc5ccccc45)c(=O)c3s2)cc1C#N` [Example 548], the pIC50 in assay [1] (setting [5]) was 8.12. For the same molecule, the pEC50 in assay [2] (setting [4]) was 6.94.
For `COc1cc(-c2cc3c(s2)c(=O)n(-c2cncc4cccnc24)c(=O)n3C)c(Cl)cc1F` [Example 994], in that order: 8.07 and 8.08.
Turning to `Cc1ccc(C#N)c(-c2cc3c(s2)c(=O)n(-c2cncc4cnn(C)c24)c(=O)n3CCC#N)c1` [Example 784], in assay [1] (setting [5]), the pIC50 is 7.97. Besides, the pEC50 in assay [2] (setting [4]) was 7.33.
For the molecule `COc1ccc(C#N)c(-c2cc3[nH]c(=O)n(-c4cncc5ccc(N6CCn7nc(C(F)(F)F)nc7C6)cc45)c(=O)c3s2)c1` [Example 605], the pIC50 in assay [1] (setting [5]) is 8.00. The negative-log EC50 (pEC50) in assay [2] (setting [4]) is 7.04.
On to `COc1cc(-c2cc3[nH]c(=O)n(-c4cncc5cccc(C)c45)c(=O)c3s2)c(Cl)cc1F` (single isomer, unassigned) [Example 995, 6-(2-chloro-4-fluoro-5-methoxyphenyl)-3-(5-methylisoquinolin-4-yl)thieno[3,2-d]pyrimidine-2,4(1H,3H)-dione], for which the pIC50 in assay [1] (setting [5]) is 8.49. The pEC50 in assay [2] (read-out: MPro EC50) is 8.90.
With `COc1cc(-c2cc3c(s2)c(=O)n(-c2cncc4ccccc24)c(=O)n3CC2(C#N)CC2)c(Cl)cc1F` [Example 631, 1-[[6-(2-chloro-4-fluoro-5-methoxy-phenyl)-3-(4-isoquinolyl)-2,4-dioxo-thieno[3,2-d]pyrimidin-1-yl]methyl]cyclopropanecarbonitrile], the negative-log IC50 (pIC50) in assay [1] (setting [5]) is 7.90. In addition, the pEC50 in assay [2] (setting [6]) was 8.30.
On to `Cn1ncc2cncc(-n3c(=O)c4sc(-c5cc(F)c(F)cc5Cl)cc4n(CCC#N)c3=O)c21` [Example 790, 3-[6-(2-chloro-4,5-difluoro-phenyl)-3-(1-methylpyrazolo[4,3-c]pyridin-7-yl)-2,4-dioxo-thieno[3,2-d]pyrimidin-1-yl]propanenitrile], for which the pIC50 in assay [1] (setting [5]) is 7.90. Also, the pEC50 in assay [2] (setting [4]) is 7.84.
Consider `COc1cc(-c2cc3[nH]c(=O)n(-c4cncc5c(CO)nn(C)c45)c(=O)c3s2)c(Cl)cc1F` [Example 699], for which the pIC50 in assay [1] (setting [5]) is 7.97. Further, in assay [2] (setting [4]), the pEC50 is 6.33.
Regarding `O=c1[nH]c2cc(-c3cncc4ccccc34)ccc2c(=O)n1-c1cncc2ccccc12` [Example 42], the pIC50 in assay [1] (setting [3]) was 5.49. Moreover, in assay [2] (setting [6]), the pEC50 was 5.30.
In the case of `Cc1c2c(-n3c(=O)c4sc(-c5ccc(F)cc5Cl)cc4n(CCC#N)c3=O)cncc2nn1C` (single isomer, unassigned) [Example 972, 3-(6-(2-chloro-4-fluorophenyl)-3-(2,3-dimethyl-2H-pyrazolo[3,4-c]pyridin-4-yl)-2,4-dioxo-3,4-dihydrothieno[3,2-d]pyrimidin-1(2H)-yl)propanenitrile], the pIC50 in assay [1] (setting [5]) was under 6.00. Besides, the pEC50 in assay [2] (read-out: MPro EC50) is under 6.00.
`CN(C)C(=O)c1cccc(-c2cccc(Cl)c2-c2ccc3c(=O)n(-c4cncc5ccccc45)c(=O)[nH]c3c2)c1` [Example 188]: the negative logarithm of the IC50 (pIC50) in assay [1] (setting [3]) was 6.92. The pEC50 in assay [2] (setting [4]) was 7.23.
On to `COc1ccc(C)c(-c2cc3[nH]c(=O)n(-c4cncc5ccccc45)c(=O)c3s2)c1` [Example 349], for which the pIC50 in assay [1] (setting [3]) was 8.14. Also, the pEC50 in assay [2] (setting [4]) was 7.52.
Turning to `COc1cc(-c2cc3c(s2)c(=O)n(-c2cncc(C#CC(C)(C)S(C)(=O)=O)c2)c(=O)n3CCC#N)c(Cl)cc1F` [Example 1039], the pIC50 in assay [1] (setting [5]) is 7.93. For the same molecule, the negative logarithm of the EC50 (pEC50) in assay [2] (setting [4]) is 7.24.
On the same counts, the results for `COc1cnc(C#N)c(-c2cc3c(s2)c(=O)n(-c2cncc4nn(C)c(C)c24)c(=O)n3CCC#N)c1` [Example 1087] are 7.22 and under 6.00.
As to `Cc1cc(-c2cccc(Cl)c2-c2ccc3c(=O)n(-c4cncc5ccccc45)c(=O)[nH]c3c2)cnn1` [Example 234], in assay [1] (setting [3]), the pIC50 was over 8.25. In addition, the pEC50 in assay [2] (setting [4]) is 7.67.
`O=c1[nH]c2nc(-c3ccccc3)ccc2c(=O)n1-c1cncc2ccccc12` [Example 31]: the pIC50 in assay [1] (setting [3]) is 4.83. In addition, the pEC50 in assay [2] (setting [6]) was under 4.30.
